Laboratory results from ChEMBL document CHEMBL4715829, “Heterodimeric Rifampicin-Tobramycin conjugates break intrinsic resistance of Pseudomonas aeruginosa to doxycycline and chloramphenicol in vitro and in a Galleria mellonella in vivo model” (Eur J Med Chem, 2019).

Key:
Pseudomonas aeruginosa [1] = assay: Antibacterial activity against Pseudomonas aeruginosa 91433 assessed as fractional inhibitory concentration index in presence of chloramphenicol incubated for 18 hrs by broth microdilution assay; type: functional
Pseudomonas aeruginosa [2] = assay: Antibacterial activity against Pseudomonas aeruginosa PAO1 assessed as fractional inhibitory concentration index in presence of Nitrofurantoin incubated for 18 hrs by broth microdilution assay based checkerboard assay; type: functional
Pseudomonas aeruginosa [3] = assay: Antibacterial activity against Pseudomonas aeruginosa 750 harboring efflux mutant assessed as reduction in bacterial growth incubated for 18 hrs by broth microdilution assay; type: functional
Pseudomonas aeruginosa [4] = assay: Antibacterial activity against Pseudomonas aeruginosa PAO1 assessed as fractional inhibitory concentration index in presence of Cefotaxime incubated for 18 hrs by broth microdilution assay based checkerboard assay; type: functional
Pseudomonas aeruginosa [5] = assay: Antibacterial activity against Pseudomonas aeruginosa PAO1 assessed as fractional inhibitory concentration index in presence of Moxifloxacin incubated for 18 hrs by broth microdilution assay based checkerboard assay; type: functional
Pseudomonas aeruginosa [6] = assay: Antibacterial activity against Pseudomonas aeruginosa 259-96918 assessed as fractional inhibitory concentration index in presence of chloramphenicol incubated for 18 hrs by broth microdilution assay; type: functional
Pseudomonas aeruginosa [7] = assay: Antibacterial activity against Pseudomonas aeruginosa PAO1 assessed as reduction in bacterial growth by measuring doxycycline MIC at <=[…] uM in presence of doxycycline incubated for 18 hrs by broth microdilution assay based checkerboard assay (reference value: […] microg/ml); type: functional; conditions: dose microM <=10
Enterococcus faecium = assay: Antibacterial activity against Enterococcus faecium ATCC 27270 assessed as reduction in bacterial growth incubated for 18 hrs by broth microdilution assay; type: functional
Pseudomonas aeruginosa [8] = assay: Antibacterial activity against Pseudomonas aeruginosa 262-101856 assessed as fractional inhibitory concentration index in presence of chloramphenicol incubated for 18 hrs by broth microdilution assay; type: functional
[9] = Cytotoxicity against human HepG2 cells assessed as cell viability at <10 uM incubated for 48 hrs prestoblue assay; type: cell-based; conditions: read-out: Activity
[10] = test system: Staphylococcus epidermidis; assay: Antibacterial activity against methicillin-resistance Staphylococcus epidermidis CAN-ICU 61589 (CAZ>32) assessed as reduction in bacterial growth incubated for 18 hrs by broth microdilution assay; type: functional
Pseudomonas aeruginosa [11] = assay: Antibacterial activity against Pseudomonas aeruginosa PAO1 assessed as reduction in bacterial growth by measuring meropenem MIC at <=10 uM in presence of meropenem incubated for 18 hrs by broth microdilution assay based checkerboard assay (reference value: 1 microg/ml); type: functional; conditions: dose microM <=10
[12] = Hemolytic activity in porcine erythrocyte at 1024 ug/ml incubated for 1 hr; type: ADME, cell-based, Sus scrofa; conditions: pig, porcine erythrocytes, at 1024 µg/mL, read-out: Activity
Pseudomonas aeruginosa [13] = assay: Antibacterial activity against Pseudomonas aeruginosa PAO1 assessed as reduction in bacterial growth by measuring tigecycline MIC at <=10 uM in presence of tigecycline incubated for 18 hrs by broth microdilution assay based checkerboard assay (reference value: 4 microg/ml); type: functional; conditions: dose microM <=10
Pseudomonas aeruginosa [14] = assay: Antibacterial activity against Pseudomonas aeruginosa PAO1 assessed as reduction in bacterial growth by measuring clindamycin MIC at <=10 uM in presence of clindamycin incubated for 18 hrs by broth microdilution assay based checkerboard assay (reference value: 1024 microg/ml); type: functional; conditions: dose microM <=10
Staphylococcus aureus = assay: Antibacterial activity against Staphylococcus aureus ATCC 29213 assessed as reduction in bacterial growth incubated for 18 hrs by broth microdilution assay; type: functional
Pseudomonas aeruginosa [15] = assay: Antibacterial activity against Pseudomonas aeruginosa 259-96918 assessed as fractional inhibitory concentration index in presence of doxycycline incubated for 18 hrs by broth microdilution assay; type: functional
[16] = Cytotoxicity against human HEK293 cells assessed as cell viability at 50 uM incubated for 48 hrs by prestoblue assay; type: cell-based; conditions: read-out: Activity
Pseudomonas aeruginosa [17] = assay: Antibacterial activity against Pseudomonas aeruginosa PAO1 assessed as reduction in bacterial growth by measuring fosfomycin MIC at <=[…] uM in presence of fosfomycin incubated for 18 hrs by broth microdilution assay based checkerboard assay (reference value: […] microg/ml); type: functional; conditions: dose microM <=10
Pseudomonas aeruginosa [18] = assay: Antibacterial activity against Pseudomonas aeruginosa PAO1 assessed as reduction in bacterial growth by measuring cefotaxime MIC at <=[…] uM in presence of cefotaxime incubated for 18 hrs by broth microdilution assay based checkerboard assay (reference value: […] microg/ml); type: functional; conditions: dose microM <=10
Klebsiella pneumoniae = assay: Antibacterial activity against Klebsiella pneumoniae ATCC 13883 assessed as reduction in bacterial growth incubated for 18 hrs by broth microdilution assay; type: functional
Pseudomonas aeruginosa [19] = assay: Antibacterial activity against Pseudomonas aeruginosa 91433 assessed as fractional inhibitory concentration index in presence of doxycycline incubated for 18 hrs by broth microdilution assay; type: functional
Pseudomonas aeruginosa [20] = assay: Antibacterial activity against Pseudomonas aeruginosa 100036 assessed as fractional inhibitory concentration index in presence of chloramphenicol incubated for 18 hrs by broth microdilution assay; type: functional
Pseudomonas aeruginosa [21] = assay: Antibacterial activity against Pseudomonas aeruginosa PAO1 assessed as fractional inhibitory concentration index in presence of Trimethoprim incubated for 18 hrs by broth microdilution assay based checkerboard assay; type: functional
Pseudomonas aeruginosa [22] = assay: Antibacterial activity against Pseudomonas aeruginosa PAO1 assessed as fractional inhibitory concentration index in presence of Rifampicin incubated for 18 hrs by broth microdilution assay based checkerboard assay; type: functional
[23] = Cytotoxicity against human HepG2 cells assessed as cell viability at 50 uM incubated for 48 hrs by prestoblue assay; type: cell-based; conditions: read-out: Activity
Pseudomonas aeruginosa [24] = assay: Antibacterial activity against Pseudomonas aeruginosa PAO1 assessed as reduction in bacterial growth by measuring linezolid MIC at <=10 uM in presence of linezolid incubated for 18 hrs by broth microdilution assay based checkerboard assay (reference value: 1024 microg/ml); type: functional; conditions: dose microM <=10
Pseudomonas aeruginosa [25] = assay: Antibacterial activity against Pseudomonas aeruginosa 200 harboring efflux mutant assessed as reduction in bacterial growth incubated for 18 hrs by broth microdilution assay; type: functional
Pseudomonas aeruginosa [26] = assay: Antibacterial activity against Pseudomonas aeruginosa 101243 assessed as fractional inhibitory concentration index in presence of chloramphenicol incubated for 18 hrs by broth microdilution assay; type: functional
[27] = Cytotoxicity against human HEK293 cells assessed as cell viability at <10 uM incubated for 48 hrs by prestoblue assay; type: cell-based; conditions: read-out: Activity
Pseudomonas aeruginosa [28] = assay: Antibacterial activity against Pseudomonas aeruginosa PAO1 assessed as fractional inhibitory concentration index in presence of Novobiocin incubated for 18 hrs by broth microdilution assay based checkerboard assay; type: functional
Pseudomonas aeruginosa [29] = assay: Antibacterial activity against Pseudomonas aeruginosa PAO1 assessed as reduction in bacterial growth by measuring nitrofurantoin MIC at <=10 uM in presence of nitrofurantoin incubated for 18 hrs by broth microdilution assay based checkerboard assay (reference value: 512 microg/ml); type: functional; conditions: dose microM <=10
Pseudomonas aeruginosa [30] = assay: Antibacterial activity against Pseudomonas aeruginosa PAO1 assessed as fractional inhibitory concentration index in presence of Erythromycin incubated for 18 hrs by broth microdilution assay based checkerboard assay; type: functional
Pseudomonas aeruginosa [31] = assay: Antibacterial activity against Pseudomonas aeruginosa PAO1 assessed as reduction in bacterial growth by measuring chloramphenicol MIC at <=[…] uM in presence of chloramphenicol incubated for 18 hrs by broth microdilution assay based checkerboard assay (reference value: […] microg/ml); type: functional; conditions: dose microM <=10
Pseudomonas aeruginosa [32] = assay: Antibacterial activity against Pseudomonas aeruginosa PAO1 assessed as reduction in bacterial growth by measuring tobramycin MIC at <=10 uM in presence of tobramycin incubated for 18 hrs by broth microdilution assay based checkerboard assay (reference value: 1 microg/ml); type: functional; conditions: dose microM <=10

Row | Structure (SMILES) | fractional inhibitory concentration index (FICI) (Pseudomonas aeruginosa [1]) | fractional inhibitory concentration index (FICI) (Pseudomonas aeruginosa [2]) | MIC (Pseudomonas aeruginosa [3]) [µg/mL] | fractional inhibitory concentration index (FICI) (Pseudomonas aeruginosa [4]) | fractional inhibitory concentration index (FICI) (Pseudomonas aeruginosa [5]) | fractional inhibitory concentration index (FICI) (Pseudomonas aeruginosa [6]) | MIC (Pseudomonas aeruginosa [7]) [µg/mL] | MIC (Enterococcus faecium) [µg/mL] | fractional inhibitory concentration index (FICI) (Pseudomonas aeruginosa [8]) | viability at 48 h [9] [%] | MIC [10] [µg/mL] | MIC (Pseudomonas aeruginosa [11]) [µg/mL] | hemolysis at 1 h, 1024 ug/ml [12] [%] | MIC (Pseudomonas aeruginosa [13]) [µg/mL] | MIC (Pseudomonas aeruginosa [14]) [µg/mL] | MIC (Staphylococcus aureus) [µg/mL] | fractional inhibitory concentration index (FICI) (Pseudomonas aeruginosa [15]) | viability at 48 h, 50 µM [16] [%] | MIC (Pseudomonas aeruginosa [17]) [µg/mL] | MIC (Pseudomonas aeruginosa [18]) [µg/mL] | other results
1 | CO[C@H]1/C=C/O[C@@]2(C)Oc3c(C)c(O)c4c(O)c(c(/C=N/N5CCN(Cc6cn(CCCCCCO[C@@H]7[C@@H](O[C@H]8O[C@H](CO)[C@@H](O)[C@H](N)[C@H]8O)[C@H](N)C[C@H](N)[C@H]7O[C@H]7O[C@H](CN)[C@@H](O)C[C@H]7N)nn6)CC5)c(O)c4c3C2=O)NC(=O)/C(C)=C\C=C\[C@H](C)[C@H](O)[C@@H](C)[C@@H](O)[C@@H](C)[C@H](OC(C)=O)[C@@H]1C.Cl.Cl.Cl.Cl.Cl | 0.375 | 0.53 | 256 | 1.03 | 0.53 | <0.375 | 0.5 | > 32 | <0.125 | > 90 | 4 | 1 | < 2 | 2 | 256 | 16 | <0.156 | > 70 | 2 | 16 | MIC (Klebsiella pneumoniae): > 32 µg/mL; fractional inhibitory concentration index (FICI) (Pseudomonas aeruginosa [19]): 0.25; fractional inhibitory concentration index (FICI) (Pseudomonas aeruginosa [20]): 0.066; fractional inhibitory concentration index (FICI) (Pseudomonas aeruginosa [21]): 0.53; fractional inhibitory concentration index (FICI) (Pseudomonas aeruginosa [22]): 0.28; viability at 48 h, 50 µM [23]: > 70%; MIC (Pseudomonas aeruginosa [24]): 128 µg/mL; MIC (Pseudomonas aeruginosa [25]): 128 µg/mL; fractional inhibitory concentration index (FICI) (Pseudomonas aeruginosa [26]): 0.187; viability at 48 h [27]: > 90%; fractional inhibitory concentration index (FICI) (Pseudomonas aeruginosa [28]): 0.28; MIC (Pseudomonas aeruginosa [29]): 256 µg/mL; fractional inhibitory concentration index (FICI) (Pseudomonas aeruginosa [30]): 0.15; MIC (Pseudomonas aeruginosa [31]): 1 µg/mL; MIC (Pseudomonas aeruginosa [32]): 1 µg/mL
2 | CO[C@H]1/C=C/O[C@@]2(C)Oc3c(C)c(O)c4c(O)c(c(/C=N/N5CCN(Cc6cn(CCCCCCCCCCCCO[C@@H]7[C@@H](O[C@H]8O[C@H](CO)[C@@H](O)[C@H](N)[C@H]8O)[C@H](N)C[C@H](N)[C@H]7O[C@H]7O[C@H](CN)[C@@H](O)C[C@H]7N)nn6)CC5)c(O)c4c3C2=O)NC(=O)/C(C)=C\C=C\[C@H](C)[C@H](O)[C@@H](C)[C@@H](O)[C@@H](C)[C@H](OC(C)=O)[C@@H]1C.O=C(O)C(F)(F)F.O=C(O)C(F)(F)F.O=C(O)C(F)(F)F.O=C(O)C(F)(F)F.O=C(O)C(F)(F)F | 0.25 | 0.53 | 128 | 1.03 | 1.03 | <0.625 | 1 | > 32 | <0.125 | > 90 | 8 | 1 | < 2 | 2 | 256 | 16 | <0.133 | > 70 | 4 | 16 | MIC (Klebsiella pneumoniae): > 32 µg/mL; fractional inhibitory concentration index (FICI) (Pseudomonas aeruginosa [19]): 0.133; fractional inhibitory concentration index (FICI) (Pseudomonas aeruginosa [20]): 0.067; fractional inhibitory concentration index (FICI) (Pseudomonas aeruginosa [21]): 0.28; fractional inhibitory concentration index (FICI) (Pseudomonas aeruginosa [22]): 0.15; viability at 48 h, 50 µM [23]: > 70%; MIC (Pseudomonas aeruginosa [24]): 256 µg/mL; MIC (Pseudomonas aeruginosa [25]): 128 µg/mL; fractional inhibitory concentration index (FICI) (Pseudomonas aeruginosa [26]): 0.125; viability at 48 h [27]: > 90%; fractional inhibitory concentration index (FICI) (Pseudomonas aeruginosa [28]): 0.28; MIC (Pseudomonas aeruginosa [29]): 256 µg/mL; fractional inhibitory concentration index (FICI) (Pseudomonas aeruginosa [30]): 0.06; MIC (Pseudomonas aeruginosa [31]): 2 µg/mL; MIC (Pseudomonas aeruginosa [32]): 1 µg/mL
